Experimental data as given in patent US8404287B2, “Use of Fructus schisandrae and extracts thereof in preventing and decreasing toxic and side effects of antineoplastic drugs” (priority 2005, dated 2013).
Like-named read-outs stand apart in the source and are kept apart here.

Experiments:
ICR mice [1] = conditions: antineoplastic agent ip once every two days x7 (Methotrexate 2, Cisplatin 2, 5-fluorouracil 30, Cytoxan 30, Vincristine 0.3, Doxorubicin 4 mg/kg), alone or within 2 h after extract 400 mg/kg ig
Source text: The mice were grouped randomly as below, 6 mice per group.

ICR mice [2] = conditions: antineoplastic agent ip once every two days x7 (Methotrexate 2, Cisplatin 2, 5-fluorouracil 30, Cytoxan 30, Vincristine 0.3 mg/kg), alone or within two hours after lignan 100 mg/kg ig
Source text: The mice were divided randomly as following, 6 mice per group.

[3] = test system: mice with acute toxicity induced by Doxorubicin; experiment: Survival rate of mice with acute toxicity induced by Doxorubicin, Schisandrin B (Example 7); type: in vivo, mouse
Procedure: Group of Doxorubicin: 42 mice were dosed intragastrically with normal saline at the 1st-3rd day of the experiment, once a day and each time with 20 ml/kg. At the 3rd day, the mice were injected into their abdominal cavities with Doxorubicin of 25 mg/kg.
At the 3rd day, the mice were injected into their abdominal cavities with 25 mg/kg of Doxorubicin 0.5 hours after drench.

[4] = test system: mice with myocardial damage induced by Doxorubicin; experiment: Serum myocardium enzymes (CK, CK-MB, LDH, GOT) after Doxorubicin, Schisandrin B (Example 7)
Procedure: CK, CK-MB, LDH and GOT were determined by automatic biochemistry analyzer.
Control group: 24 mice were dosed intragastrically with normal saline at the 1st-3rd day of the experiment, once a day and each time with 20 ml/kg.
Group of Schisandrin B (SchB group): 24 mice were dosed intragastrically with SchB at the 1st-3rd day of the experiment, once a day and each time with 100 mg/kg.
Group of Doxorubicin: 42 mice were dosed intragastrically with normal saline at the 1st-3rd day of the experiment, once a day and each time with 20 ml/kg.
At the 5th day (48 hours after injection of Doxorubicin into abdominal cavity), blood were taken from 6 mice of each group. The serum was separated by regular separation. CK, CK-MB, LDH and GOT were determined by automatic biochemistry analyzer.

ICR mice [5] = conditions: Doxorubicin alone or in combination with dibenzocyclooctadiene lignans
Procedure: Doxorubicin Hydrochloride Injection was obtained from Italy pharmacia Co. Six Dibenzocyclooctadiene lignans were obtained from National Institute for the Verification of Pharmaceutical and Biological Products (Product No.: 110765-200407), which were dissolved in 0.5% Poloxamer. Female ICR mice with a body weight of 25-30 g were obtained from Shanghai Experimental Animal Center, which were grouped randomly into 4 groups, 10 mice per group.
Group of Doxorubicin (Dox group): 10 mice were injected into their abdominal cavities with 2 mg/kg of Doxorubicin once every two days, consecutively for 7 times.

ICR mice [6] = experiment: Apparent condition of mice, ethanol extract and Doxorubicin (Example 2); type: in vivo, mouse; conditions: Doxorubicin alone or with extract ig 3 times
[7] = test system: mice with acute toxicity induced by Doxorubicin; experiment: Survival rate of mice with acute toxicity induced by Doxorubicin, ethanol extract (Example 2); type: in vivo, mouse
Procedure: Group of Doxorubicin (the Dox group): 42 mice were dosed intragastrically with normal saline in an amount of 20 ml/kg each time at the 1st-3rd day of the experiment, once a day. At the 3rd day, the mice were injected with Doxorubicin of 25 mg/kg into their abdominal cavities.
Group 1 of Doxorubicin plus the extract of Fructus schisandrae (group 1 of Dox +X): 24 mice were dosed intragastrically with the extract of Fructus schisandrae in an amount of 400 mg/kg each time at the 1st-3rd day of the experiment, once a day. At the 3rd day, the mice were injected with 25 mg/kg of Doxorubicin into their abdominal cavities 0.5 hours after drench.
Group 2 of Doxorubicin plus the extract of Fructus schisandrae (group 2 of Dox +X): 24 mice were dosed intragastrically with the extract of Fructus schisandrae in an amount of 200 mg/kg each time at the 1st-3rd day of the experiment, once a day. At the 3rd day, the mice were injected with 25 mg/kg of Doxorubicin into their abdominal cavities 0.5 hours after drench.

[8] = test system: mice with myocardial damage induced by Doxorubicin; experiment: Serum myocardium enzymes (CK, CK-MB, LDH, GOT) after Doxorubicin, ethanol extract (Example 2); type: in vivo, mouse; conditions: Dox group: Doxorubicin 25 mg/kg ip at 3rd day; vs control group and X group (P<0.05); 48 h after injection
Procedure: Ethanol extract of Fructus schisandrae prepared from Example 1 was dissolved in 0.5% Poloxamer. CK (creatine kinase), CK-MB (creatine kinase isozyme), LDH (lactic dehydrogenase) and GOT (glutamic-oxalocetic transaminase) were detected by automatic biochemistry analyzer.
The serum was separated by regular separation and frozen at −80° C.

[9] = test system: left ventricular myocardium matrix metalloproteinase (MMP-2); experiment: Left ventricular myocardium MMP-2 activity, Schisandrin B (Example 7); type: in vivo, mouse
Procedure: The experimental method was carried out as those described in Example 2 (1.4).

## O=P1(N(CCCl)CCCl)NCCCO1 (stereo not shown) [Cytoxan]
ICR mice [1]
  Heart weight: 162.6 ± 31.4 mg
  Kidney weight: 396.3 ± 54.7 mg
  Liver weight: 1.88 ± 0.36 g
  Spleen weight: 113.5 ± 24.7 mg
  Thymus weight: 49.8 ± 12.4 mg
ICR mice [2]
  Heart weight: 162.6 ± 31.4 mg
  Kidney weight: 396.3 ± 54.7 mg
  Liver weight: 1.88 ± 0.36 g
  Spleen weight: 113.5 ± 24.7 mg
  Thymus weight: 49.8 ± 12.4 mg

## COc1cccc2c1C(=O)c1c(O)c3c(c(O)c1C2=O)C[C@@](O)(C(=O)CO)C[C@@H]3O[C@H]1C[C@H](N)[C@H](O)[C@H](C)O1 [Doxorubicin]
[3]; Doxorubicin 25 mg/kg ip alone
  survival rate on the 7th day: 0
[3]; Doxorubicin 25 mg/kg ip, alone or with Sch B 100, 50 or 25 mg/kg ig days 1-3
  day on which death of mice occurred: 4 days
[4]; Doxorubicin 25 mg/kg ip alone, vs control group and Sch B group (P<0.05), 48 h after injection
  4 serum enzyme indexes (CK, CK-MB, LDH, GOT): significantly higher
ICR mice [5]
  apparent conditions of mice: in bad conditions after 7-8 days, manifested as asthenia, listlessness and hypotrichosis
ICR mice [6]
  apparent condition of mice: in bad conditions, manifested as asthenia, listlessness, hypotrichosis
[7]; Dox group: Doxorubicin 25 mg/kg ip alone
  survival rate on the 7th day: 3.7%
[7]; Doxorubicin 25 mg/kg ip, alone or with extract 400 or 200 mg/kg ig days 1-3
  day on which death of mice occurred: 5 days
[8]
  serum myocardium enzyme spectrum indexes (CK, CK-MB, LDH, GOT): significantly higher

## COc1cc2c(c(OC)c1OC)-c1c(cc3c(c1OC)OCO3)CC(C)C(C)C2 (stereo not shown) [Schisandrin B]
[9]; FIG. 14
  increase of mouse left ventricular myocardium MMP-2 activity induced by Doxorubicin: inhibit the increase
[9]; Sch B group: 100 mg/kg ig days 1-3, no Doxorubicin
  left ventricular myocardium MMP-2 activity: No left ventricular myocardium matrix metalloproteinase (MMP-2) activity
[3]; FIG. 15
  death of mouse induced by Doxorubicin: inhibit the death
[4]; FIG. 10
  increase of mouse serum creatine kinase (CK) induced by Doxorubicin: inhibit the increase
[4]; FIG. 11
  increase of mouse serum creatine kinase isozyme (CK-MB) induced by Doxorubicin: inhibit the increase
[4]; FIG. 12
  increase of mouse serum glutamic-oxalocetic transaminase (GOT) induced by Doxorubicin: inhibit the increase
[4]; FIG. 13
  increase of mouse serum lactic dehydrogenase (LDH) induced by Doxorubicin: inhibit the increase
